Reference: patent publication US20240238288A1, “ALDOSE REDUCTASE INHIBITORS FOR TREATING SORBITOL DEHYDROGENASE DEFICIENCY” (APPLIED THERAPEUTICS, INC., priority 2020, published 2024)

Tested on: fibroblasts from patients with SDH deficiency (biallelic c.757delG)
Experiment: Sorbitol levels in human fibroblasts from patients with sorbitol dehydrogenase deficiency treated with aldose reductase inhibitors
Type: cell-based
Details: for reduction of sorbitol levels in comparison to vehicle control: 72 hours, SDH-deficient patient fibroblasts, sorbitol by UPLC-MS/MS normalized to protein; for sorbitol levels in SORD fibroblasts (FIG. 1 legend): FIG. 1 histogram, SORD patient fibroblasts
Method: Fibroblasts were obtained from skin biopsy of normal human volunteers or patients with confirmed sorbitol dehydrogenase deficiency (biallelic c.757delG). Fibroblasts were cultured in triplicate in Dulbecco's modified Eagle's medium (ThermoFisher) supplemented with 10% fetal bovine serum, penicillin and streptomycin (Gibco). Cells were grown in 5% CO2 at 37° C. in a humidified incubator. Asynchronous cell cultures were grown to approximately 80% confluency, and then treated with vehicle, Compound A (100 uM) or Compound B (10 uM) for 72 hours. Th media containing vehicle, Compound A or Compound B, was changed every 24 hours.
Sorbitol and protein were determinated from lysates of human fibroblasts. For protein measurements, fibroblasts were collected and lysed in RIPA buffer (ThermoFisher) containing protease inhibitors (Roche) and sonicated for 5 minutes using a Bioruptor sonication device (Diagenode). Protein quantification was conducted using a Coomassie assay. For sorbitol determination, a UPLC-tandem mass spectrometry (MS/MS) (Waters Acquity UPLC & TQD mass spectrometer) was used, fibroblasts were collected and lysed in RIPA buffer (ThermoFisher) and sonicated for 5 minutes using a Bioruptor sonication device (Diagenode). Cell lysates were centrifuged 13,000 g for 10 minutes at 4° C., and the supernatants were collected for protein quantification and sorbitol measurement. For Sorbitol measurements, the lysate underwent protein precipitation with acetonitrile (1:5), tenfold dilution with acetonitrile/water (50:50) and cleanup on Oasis HLB cartridges (10 mg/ml), before injection (3 ul) into the UPLC system. The UPLC conditions were as follows: column: BHE amid 1.7 um (2.1×100 mm) at 88° C.; eluent A: acetonitrile 90%/water 5%/isopropanol 5%; eluent B: acetonitrile 80%/water 20%; gradient elution, 0 minutes 100% A to 3.6 minutes 100% B; flow rate of 0.45 ml/minute. The retention time of sorbitol was 2.7 minutes. The linearity of the method was assessed between 0.25 and 50 mgl^−1. The MS/MS conditions were as follows: interface, electrospray interface in negative ion mode; multiple reaction monitory acquisition, m z 180.0-88.9 (CV 24, CE 15). The detection limit (signal-to-noise ration=3) was 0.03 mgl^−1. Sorbitol levels were normalized to protein concentration.

O=C(O)Cc1nn(Cc2nc3cc(C(F)(F)F)ccc3s2)c(=O)c2nccnc12 [Compound A]
reduction of sorbitol levels in comparison to vehicle control (100 uM): 78% | sorbitol levels in SORD fibroblasts (FIG. 1 legend): reduces sorbitol levels

O=C(O)Cc1nn(Cc2nc3cc(C(F)(F)F)ccc3s2)c(=O)c2cscc12 [Compound B]
reduction of sorbitol levels in comparison to vehicle control (10 uM): 75% | sorbitol levels in SORD fibroblasts (FIG. 1 legend): reduces sorbitol levels
